Results from publication PMC4979516, “Quinazoline-based tricyclic compounds that regulate programmed cell death, induce neuronal differentiation, and are curative in animal models for excitotoxicity and hereditary brain disease” (Cell Death Discovery, 2015).
Where “and” joins values, the source holds several entries; their conditions need not be identical. Equal values may be shown once. Entries after “also recorded” stand apart in the source; their conditions may differ.

Columns and labels:
[1] = molecular target: T1, 18 kDa translocator protein (TSPO) (Rattus norvegicus, UniProt P16257); test: TSPO binding, displacement of [3H]PK 11195 in rat kidney membranes
T1 construct: 400 μl of homogenized rat kidney membranes (5 mg of homogenate/ml); from tissue; host or cells: rat kidney (homogenized membranes)
Procedure: After incubation for 60 min at 4 °C, samples were filtered under vacuum over Whatman GF/C filters and washed three times with 5 ml of 50 mM Tris-HCl buffer, pH 7.4. The filters were incubated in CytoScint (MP Biomedicals) and radioactivity was measured after 12 h with a 1600 CA Tri-Carb liquid scintillation analyzer (Packard). Inhibitory constant (Ki) values were calculated by the equation Ki=IC50/(1+C/Kd), where C=[^3H]

U118MG cells [2] = test: LDH cytotoxicity assay, glutamate-induced cell death of U118MG cells; settings: 35 mM glutamate
Procedure: (1) For U118MG cells, glutamate at a concentration of 35 mM was applied with or without MGV-1. As discussed, glutamate levels in normal healthy brain tissue can average 15 mM, and these levels can be doubled in diseased brain tissue, whereas in cell organelles glutamate levels can be as high as 250 mM (as discussed). […] In more detail, U118MG cells were seeded, 2×10^5 cells per well of 6-well plates and 6×10^3 cells per well of 96-well plates. Twenty-four hours after seeding, U118MG cells were pretreated with MGV-1 (or one of the other compounds) at various concentrations from 0.1 nM–100 μM. Twenty-four hours after the pretreatment, the cells were exposed to 35 mM of glutamate. […] The negative control was vehicle, that is, ethanol with a final concentration of 1%. […] The positive control was exposure to 35 mM of glutamate alone (with 200 μM of glycine).
Wells of 96-well plates were with 6000 cells per well and treated according the protocol presented above. We used the Cytotoxicity Detection Kit (LDH) (Roche Pharmacuticals) according to the manufacturer’s instructions. When cell plasma membranes are damaged, the cytoplasmic enzyme LDH is released into the medium. The amount of formazan formed is proportional to the amount of LDH released.[77] The resulting color intensity is proportional to the number of damaged cells. Absorbance at 492 nm with reference at 690 nm was measured with the Spectrophotometer Zenyth 200 (Anthos) and the results were calculated and normalized according to the formula presented by the manufacturer.

U118MG cells [3] = test: Mitochondrial membrane potential (JC-1) assay in U118MG cells exposed to glutamate; type: cell-based, human; settings: 25 μM compound, 35 mM glutamate
Source text: JC-1 was used to assay changes in Δψm, as described previously.[71],[79] Owing to charges distributed along JC-1 molecules, they pass unimpaired (charged) mitochondrial membranes and enter the mitochondrial matrix. There the J-molecules form J-aggregates, which emit at 590 nm (orange–red fluorescence). […] The monomers emit at 527 nm (green fluorescence). A decrease in the red–green fluorescence intensity ratio is an indication for mitochondrial depolarization. As a positive control, the proton ionophore carbonyl cyanide m-chlorophenylhydrazone was used as described previously.[71] Cells were collected and prepared for suspension in 10 μg/ml of JC-1 solution in PBS. After incubation at 37 °C for 30 min in the dark, the cells were washed with 0.5 ml of PBS, and the cell suspensions were analyzed with the BD FACSCalibur flow cytometer.

U118MG cells [4] = test: Mitochondrial ROS / cardiolipin oxidation (NAO) assay in U118MG cells exposed to glutamate; type: cell-based, human; settings: 25 μM compound, 35 mM glutamate
Source text: Cardiolipin is present in the inner mitochondrial membrane, at the contact sites with the outer mitochondrial membrane. By application of NAO, we assayed cardiolipin peroxidation as an indication of mitochondrial ROS generation, as described previously.[71] NAO binds with high affinity to non-oxidized cardiolipin in a 2 : 1 ratio, but with less affinity to oxidized cardiolipin, the latter which is reflected by lower levels of green NAO fluorescence.[78] For our study, cells were collected and centrifuged at 1200×g for 5 min, 4 °C. Cell pellets were re-suspended in 0.5 ml of 0.1 μM NAO and incubated for 30 min at 37 °C in the dark. Then, the cells were washed once with 0.5 ml PBS and transferred into 5 ml FALCON FACS tubes and analyzed with the aid of a BD FACSCalibur flow cytometer using CellQuest software (BD Biosciences, Franklin Lakes, NJ, USA).

PC12 cells = test: Cell death of PC12 cells, glutamate with or without MGV-1 (LDH); type: cell-based, rat
Procedure: (2) For PC12 cells (as for U118MG cells), dose-response assays of the lethal effects of glutamate on PC12 cells established 35 mM as an optimal concentration for glutamate for induction of LDH activity in the medium in the range of 20–40% as compared with the effect of the positive control, 1% Triton X-100, the latter which is defined as causing 100% of LDH release in the medium.

[5] = system: PC12 cells strain #1 (polygonal cells); test: Neuronal differentiation (neurite sprouting) of PC12 strain #1; type: cell-based, rat; settings: strain #1, only polygonal cells
R6-2 mice = test: R6-2 transgenic mouse model for Huntington disease (lifespan, behavior); type: in vivo; settings: pilot studies, s.c. daily 5 days per week; MGV-1 15 mg/kg, PK 11195 15 mg/kg, MGV-2 15 and 7.5 mg/kg
Source text: Huntington disease in humans is a hereditary disease including neurodegeneration leading to degradation in motor performance, continual involuntary movements, tremors, cardiovascular and respiratory impairments, and finally leading to death of the patients having the disease.[88] For this study, R6-2 mice (~120 CAG repeats B6CBA-Tg(HDexon1)62 Gpb/3J) mice were used as a transgenic mouse model for Huntington disease. For this purpose, mice obtained from the Jackson Laboratory were bred. In particular, males hemizygous for Tg(HDexon1)62 Gpb, and females from the wild-type background strain B6CBAF1/J, were bred according to the protocol of Jackson Laboratory.
For tests of drug efficacy, male offspring hemizygous for Tg(HDexon1)62 Gpb were used to determine drug effect on lifespan, motor activity, and general well-being of the animals. Drug treatment for this study consisted of daily (5 continuous days per week) subcutaneous injections in the neck area of mice with 20 μl of: the drug vehicle DMSO (vehicle control), 2-Cl-MGV-1(7.5 mg/kg) and 2-Cl-MGV-2 (7.5 mg/kg). […] Quantities were used according to previous studies regarding TSPO ligands[48] and adapted depending on the findings in the course of the pilot studies. The treatments were given until the animals died a natural death. Behavioral experiments included distance covered in an open field apparatus,[89] freezing,[89] and balance on a rotor-rod.[90] Spontaneous tremor activity was evaluated using a Hamilton–Kinder sensor in a soundproof ventilated apparatus (Kinder Scientific). The assays for locomotor activity, tremors, and body weight were performed on a weekly basis, together with evaluation of the well-being of the mice. Finally, the day of death was noted. As lifespan data were most pronounced, these are presented in the present description of the results. No adverse effects of any of the drug treatments were noted, neither for specific tests, nor for general observations. Importantly, DMSO had no effect by itself as compared with naive mice or saline-injected mice with various behavioral assays.[20]

T1 sequence (P16257 whole entry): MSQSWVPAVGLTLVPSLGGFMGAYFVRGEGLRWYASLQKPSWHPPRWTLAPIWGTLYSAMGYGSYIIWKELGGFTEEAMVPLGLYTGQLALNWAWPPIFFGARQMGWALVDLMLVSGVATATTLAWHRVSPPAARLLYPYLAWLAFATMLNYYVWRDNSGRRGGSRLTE

CN(C)C(=O)Oc1nc(-c2ccccc2)nc2ccccc12 [MGV-1, 2-phenylquinazolin-4-yl dimethylcarbamate]
Ki [1]: 825 ± 315 nM
Protection against glutamate-induced cell death (LDH) (U118MG cells [2]; compound 10-100 μM, 24 h pretreatment): protect against lethal effects of glutamate; also recorded: prevented cell death induction
Most effective concentration for protection against cell death (U118MG cells [2]; tested 0.1 nM-100 μM): 25 µM and 50 µM
Prevention of collapse of the ΔΨm induced by glutamate (JC-1) (U118MG cells [3]): prevention of the collapse of the ΔΨm
Prevention of cardiolipin oxidation / mitochondrial ROS generation induced by glutamate (NAO) (U118MG cells [4]): prevent cardiolipin oxidation
Cell death of PC12 cells by the compound by itself (PC12 cells; 100 μM, no glutamate): can induce cell death
Enhancement of cell death induction by glutamate (PC12 cells; PC12, 50 μM MGV-1, 35 mM glutamate): threefold
Optimal concentration as enhancer of cell death induced by glutamate (PC12 cells; PC12, 35 mM glutamate, tested 0.1 nM-100 μM): 50 µM
Differentiation of PC12 strain #1 by the agent by itself [5]: can be differentiated by MGV-1 by itself
Effect on behavior and lifespan of R6-2 mice (R6-2 mice): did not appear to have an effect
